Test results: ChEMBL document CHEMBL1131005, “Synthesis and dopamine transporter affinity of the four stereoisomers of (+/-)-2-(methoxycarbonyl)-7-methyl-3-phenyl-7-azabicyclo[2.2.1]heptane” (J Med Chem, 1998)

Target: Sodium-dependent dopamine transporter (Rattus norvegicus, UniProt P23977)
Assay: Binding affinity towards dopamine transporter using [3H]WIN-35428 as radioligand in rat caudate-putamen tissue
Format: tissue-based

Sequence of Sodium-dependent dopamine transporter (P23977 whole entry): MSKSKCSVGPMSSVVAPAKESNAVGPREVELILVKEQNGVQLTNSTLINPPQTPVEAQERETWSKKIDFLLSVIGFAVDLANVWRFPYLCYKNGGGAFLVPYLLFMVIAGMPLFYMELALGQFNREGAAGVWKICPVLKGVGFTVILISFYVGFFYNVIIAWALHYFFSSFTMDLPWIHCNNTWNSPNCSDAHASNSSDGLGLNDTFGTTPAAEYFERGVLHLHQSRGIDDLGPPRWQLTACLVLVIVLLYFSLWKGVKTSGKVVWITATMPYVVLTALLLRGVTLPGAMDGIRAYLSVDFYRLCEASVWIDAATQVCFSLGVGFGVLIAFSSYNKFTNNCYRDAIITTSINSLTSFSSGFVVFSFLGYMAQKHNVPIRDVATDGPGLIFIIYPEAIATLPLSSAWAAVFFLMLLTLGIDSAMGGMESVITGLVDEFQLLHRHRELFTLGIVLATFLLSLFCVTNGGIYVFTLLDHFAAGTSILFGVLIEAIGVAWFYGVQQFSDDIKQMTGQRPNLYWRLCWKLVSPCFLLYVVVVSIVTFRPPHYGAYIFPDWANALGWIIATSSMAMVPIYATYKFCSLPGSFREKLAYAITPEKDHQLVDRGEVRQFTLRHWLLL

COC(=O)[C@@H]1C2CCC([C@H]1c1ccccc1)N2C (stereo partly drawn)
Ki: 5.62 µM

COC(=O)[C@H]1C2CCC([C@H]1c1ccccc1)N2C (stereo partly drawn)
Ki: 18.9 µM

COC(=O)[C@@H]1C2CCC([C@@H]1c1ccccc1)N2C (stereo partly drawn)
Ki: 60.4 µM
